Experimental data as given in ChEMBL document CHEMBL1201862, “PubChem BioAssay data set” (2004).
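Briefly, cells in 96-well plates were exposed to five compound concentrations for 48 h, and endpoints were estimated by linear interpolation. Here, GI50 denotes the concentration required for 50% inhibition of growth.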 The source made the active and inactive calls. Cut-off read from the data, not from the text of the source: active = GI50 up to about 1.1 µM and inactive = higher.

Tests used:
Test in all cases: DTP human tumour cell line panel, 48 h
SF-295 = test system: SF-295
HCC 2998 = test system: HCC 2998
NCI/ADR-RES = test system: NCI/ADR-RES
UACC-257 = test system: UACC-257
A549 = test system: A549
UACC-62 = test system: UACC-62
HCT-116 = test system: HCT-116
SK-MEL-28 = test system: SK-MEL-28
CAKI-1 = test system: CAKI-1
COLO 205 = test system: COLO 205
HOP-62 = test system: HOP-62
NCI-H460 = test system: NCI-H460
SR = test system: SR
BT-549 = test system: BT-549
SF-539 = test system: SF-539
U-251 = test system: U-251
PC-3 = test system: PC-3
ACHN = test system: ACHN
OVCAR-8 = test system: OVCAR-8
SNB-19 = test system: SNB-19
UO-31 = test system: UO-31
HCT-15 = test system: HCT-15
SNB-75 = test system: SNB-75
A498 = test system: A498
DU-145 = test system: DU-145
OVCAR-3 = test system: OVCAR-3
OVCAR-5 = test system: OVCAR-5
KM12 = test system: KM12
786-0 = test system: 786-0
M14 = test system: M14
SW-620 = test system: SW-620
OVCAR-4 = test system: OVCAR-4
MDA-MB-231 = test system: MDA-MB-231
NCI-H226 = test system: NCI-H226
SN12C = test system: SN12C
MDA-N = test system: MDA-N
SK-MEL-5 = test system: SK-MEL-5
EKVX = test system: EKVX
SK-OV-3 = test system: SK-OV-3
RPMI-8226 = test system: RPMI-8226
HOP-92 = test system: HOP-92
TK-10 = test system: TK-10
K562 = test system: K562
SK-MEL-2 = test system: SK-MEL-2
MDA-MB-435 = test system: MDA-MB-435
NCI-H522 = test system: NCI-H522
NCI-H23 = test system: NCI-H23
HT-29 = test system: HT-29
MOLT-4 = test system: MOLT-4
SF-268 = test system: SF-268
MCF7 = test system: MCF7
LOX IMVI = test system: LOX IMVI
HL-60 = test system: HL-60
CCRF-CEM = test system: CCRF-CEM
T47D = test system: T47D
IGROV-1 = test system: IGROV-1
RXF 393 = test system: RXF 393
Hs-578T = test system: Hs-578T

Which GI50 (SF-295) does the source give for `CC1=CCC[C@H]2[C@](C)(CC3=CC(=O)C(Sc4ccccc4)=CC3=O)[C@@H](C)CC[C@]12C` here?
Its GI50 is 17.3 µM (inactive).

And the GI50 (HCC 2998)?
Its GI50 is 20.4 µM (inactive).

And the GI50 (NCI/ADR-RES)?
The GI50 was 17.1 µM (inactive).

And the GI50 (UACC-257)?
Its GI50 is 15.9 µM (inactive).

And the GI50 (A549)?
Its GI50 is 17.5 µM (inactive).

What about the GI50 (UACC-62) of the same compound?
Its GI50 is 21.7 µM (inactive).

And the GI50 (HCT-116)?
Its GI50 is 16.6 µM (inactive).

What about the GI50 (SK-MEL-28) of the same compound?
The GI50 was 20.9 µM (inactive).

What about the GI50 (CAKI-1) of the same compound?
The GI50 was 17.1 µM (inactive).

What about the GI50 (COLO 205) of the same compound?
The GI50 was 14.5 µM (inactive).

And the GI50 (HOP-62)?
The GI50 was 16.9 µM (inactive).

And the GI50 (NCI-H460)?
The GI50 was 20 µM (inactive).

What about the GI50 (SR) of the same compound?
Its GI50 is 21.8 µM (inactive).

What about the GI50 (BT-549) of the same compound?
Its GI50 is 19.5 µM (inactive).

What about the GI50 (SF-539) of the same compound?
Its GI50 is 19.8 µM (inactive).

And the GI50 (U-251)?
The GI50 was 18.1 µM (inactive).

What about the GI50 (PC-3) of the same compound?
The GI50 was 23 µM (inactive).

What about the GI50 (ACHN) of the same compound?
Its GI50 is 19.2 µM (inactive).

And the GI50 (OVCAR-8)?
The GI50 was 13.6 µM (inactive).

And the GI50 (SNB-19)?
The GI50 was 20.5 µM (inactive).

And the GI50 (UO-31)?
The GI50 was 15.7 µM (inactive).

What about the GI50 (HCT-15) of the same compound?
Its GI50 is 19.2 µM.

What about the GI50 (SNB-75) of the same compound?
The GI50 was 20.4 µM (inactive).

What about the GI50 (A498) of the same compound?
The GI50 was 19.9 µM (inactive).

What about the GI50 (DU-145) of the same compound?
The GI50 was 22.5 µM (inactive).

What about the GI50 (OVCAR-3) of the same compound?
Its GI50 is 16.6 µM (inactive).

What about the GI50 (OVCAR-5) of the same compound?
The GI50 was 17.1 µM (inactive).

What about the GI50 (KM12) of the same compound?
The GI50 was 41.6 µM (inactive).

What about the GI50 (786-0) of the same compound?
Its GI50 is 18.2 µM (inactive).

What about the GI50 (M14) of the same compound?
Its GI50 is 16.7 µM (inactive).

What about the GI50 (SW-620) of the same compound?
Its GI50 is 16.9 µM (inactive).

And the GI50 (OVCAR-4)?
Its GI50 is 19.7 µM (inactive).

What about the GI50 (MDA-MB-231) of the same compound?
The GI50 was 21.4 µM (inactive).

And the GI50 (NCI-H226)?
Its GI50 is 14.7 µM (inactive).

What about the GI50 (SN12C) of the same compound?
Its GI50 is 17.7 µM (inactive).

What about the GI50 (MDA-N) of the same compound?
The GI50 was 18.5 µM (inactive).

What about the GI50 (SK-MEL-5) of the same compound?
Its GI50 is 17.2 µM (inactive).

And the GI50 (EKVX)?
Its GI50 is 20.2 µM (inactive).

With `S=c1oc(CCCCCCCCc2nn(CNc3ccccc3)c(=S)o2)nn1CNc1ccccc1` as the compound, how does the GI50 (SF-295) read?
Its GI50 is > 100 µM (inactive).

And the GI50 (HCC 2998)?
The GI50 was > 100 µM (inactive).

What about the GI50 (NCI/ADR-RES) of the same compound?
The GI50 was > 100 µM (inactive).

What about the GI50 (UACC-257) of the same compound?
Its GI50 is > 100 µM (inactive).

And the GI50 (A549)?
The GI50 was > 100 µM (inactive).

And the GI50 (UACC-62)?
Its GI50 is > 100 µM (inactive).

And the GI50 (HCT-116)?
The GI50 was > 100 µM (inactive).

And the GI50 (SK-MEL-28)?
Its GI50 is > 100 µM (inactive).

And the GI50 (SK-OV-3)?
Its GI50 is > 100 µM (inactive).

What about the GI50 (CAKI-1) of the same compound?
Its GI50 is > 100 µM (inactive).

What about the GI50 (RPMI-8226) of the same compound?
Its GI50 is > 100 µM (inactive).

What about the GI50 (COLO 205) of the same compound?
Its GI50 is > 100 µM (inactive).

What about the GI50 (HOP-92) of the same compound?
Its GI50 is > 100 µM (inactive).

And the GI50 (HOP-62)?
Its GI50 is > 100 µM (inactive).

What about the GI50 (TK-10) of the same compound?
The GI50 was > 100 µM (inactive).

And the GI50 (NCI-H460)?
Its GI50 is > 100 µM (inactive).

What about the GI50 (BT-549) of the same compound?
The GI50 was > 100 µM (inactive).

What about the GI50 (U-251) of the same compound?
Its GI50 is > 100 µM (inactive).

And the GI50 (PC-3)?
The GI50 was > 100 µM (inactive).

And the GI50 (ACHN)?
The GI50 was > 100 µM (inactive).

What about the GI50 (SNB-19) of the same compound?
The GI50 was > 100 µM (inactive).

And the GI50 (UO-31)?
Its GI50 is > 100 µM (inactive).

What about the GI50 (HCT-15) of the same compound?
Its GI50 is over 100 µM.

And the GI50 (SNB-75)?
The GI50 was > 100 µM (inactive).

What about the GI50 (A498) of the same compound?
The GI50 was > 100 µM (inactive).

What about the GI50 (K562) of the same compound?
Its GI50 is 57.5 µM (inactive).

What about the GI50 (DU-145) of the same compound?
Its GI50 is > 100 µM (inactive).

What about the GI50 (SK-MEL-2) of the same compound?
The GI50 was > 100 µM (inactive).

What about the GI50 (OVCAR-5) of the same compound?
The GI50 was > 100 µM (inactive).

What about the GI50 (KM12) of the same compound?
Its GI50 is > 100 µM (inactive).

What about the GI50 (MDA-MB-435) of the same compound?
Its GI50 is > 100 µM (inactive).

What about the GI50 (786-0) of the same compound?
Its GI50 is > 100 µM (inactive).

What about the GI50 (M14) of the same compound?
The GI50 was > 100 µM (inactive).

And the GI50 (NCI-H522)?
The GI50 was > 100 µM (inactive).

And the GI50 (SW-620)?
Its GI50 is > 100 µM (inactive).

And the GI50 (OVCAR-4)?
The GI50 was > 100 µM (inactive).

And the GI50 (NCI-H23)?
Its GI50 is > 100 µM (inactive).

And the GI50 (HT-29)?
Its GI50 is > 100 µM (inactive).

What about the GI50 (MOLT-4) of the same compound?
Its GI50 is > 100 µM (inactive).

What about the GI50 (MDA-MB-231) of the same compound?
Its GI50 is > 100 µM (inactive).

What about the GI50 (NCI-H226) of the same compound?
Its GI50 is > 100 µM (inactive).

And the GI50 (SN12C)?
The GI50 was > 100 µM (inactive).

What about the GI50 (SK-MEL-5) of the same compound?
Its GI50 is > 100 µM (inactive).

What about the GI50 (EKVX) of the same compound?
The GI50 was > 100 µM (inactive).

And the GI50 (SF-268)?
The GI50 was > 100 µM (inactive).

What about the GI50 (MCF7) of the same compound?
Its GI50 is > 100 µM (inactive).

What does the source list for `Nc1nc2cc(COc3ccc(C(=O)O)cc3)ccc2nc1-c1ccccc1`?
GI50 (SF-295): > 10 µM (inactive); GI50 (LOX IMVI): > 10 µM (inactive); GI50 (HCC 2998): > 10 µM (inactive); GI50 (UACC-257): > 10 µM (inactive); GI50 (A549): > 10 µM (inactive); GI50 (UACC-62): > 10 µM (inactive); GI50 (HL-60): > 10 µM (inactive); GI50 (CCRF-CEM): > 10 µM (inactive); GI50 (SK-MEL-28): > 10 µM (inactive); GI50 (SK-OV-3): > 10 µM (inactive); GI50 (CAKI-1): > 10 µM (inactive); GI50 (RPMI-8226): > 10 µM (inactive); GI50 (COLO 205): > 10 µM (inactive); GI50 (HOP-92): > 10 µM (inactive); GI50 (T47D): > 10 µM (inactive); GI50 (HOP-62): > 10 µM (inactive); GI50 (IGROV-1): > 10 µM (inactive); GI50 (TK-10): > 10 µM (inactive); GI50 (NCI-H460): > 10 µM (inactive); GI50 (SR): > 10 µM (inactive); GI50 (SF-539): > 10 µM (inactive); GI50 (RXF 393): > 10 µM (inactive); GI50 (U-251): > 10 µM (inactive); GI50 (PC-3): > 10 µM (inactive); GI50 (ACHN): > 10 µM (inactive); GI50 (SNB-19): > 10 µM (inactive); GI50 (UO-31): > 10 µM (inactive); GI50 (HCT-15): > 10 µM; GI50 (SNB-75): > 10 µM (inactive); GI50 (K562): > 10 µM (inactive); GI50 (DU-145): > 10 µM (inactive); GI50 (OVCAR-3): > 10 µM (inactive); GI50 (SK-MEL-2): > 10 µM (inactive); GI50 (OVCAR-5): > 10 µM (inactive); GI50 (KM12): > 10 µM (inactive); GI50 (MDA-MB-435): > 10 µM (inactive); GI50 (M14): > 10 µM (inactive); GI50 (NCI-H522): > 10 µM (inactive); GI50 (SW-620): > 10 µM (inactive); GI50 (OVCAR-4): > 10 µM (inactive); GI50 (NCI-H23): > 10 µM (inactive); GI50 (HT-29): > 10 µM (inactive); GI50 (MOLT-4): > 10 µM (inactive); GI50 (MDA-MB-231): > 10 µM (inactive); GI50 (Hs-578T): > 10 µM (inactive); GI50 (NCI-H226): > 10 µM (inactive); GI50 (SN12C): > 10 µM (inactive); GI50 (MDA-N): > 10 µM (inactive); GI50 (SK-MEL-5): > 10 µM (inactive); GI50 (EKVX): > 10 µM (inactive); GI50 (SF-268): > 10 µM (inactive); GI50 (MCF7): > 10 µM (inactive)
